Reference: patent publication US20250228775A1, “ETHANOLIC RESINIFERATOXIN CONCENTRATE” (Gruenenthal GmbH, priority 2024, published 2025)

Legend:
[1] = test system: chronic osteoarthritic knee joint pain; assay: Randomized, double-blind, placebo-controlled, single-dose trial of intraarticular Resiniferatoxin (Example 3); assay type: in vivo, human; settings: for subjects with severe adverse events: none considered related to investigational medicinal product or Ropivacaine
Protocol: The primary objective of this study was to compare the analgesic effects of single intraarticular injections of Resiniferatoxin (100 or 400 ng) compared to placebo, at 3 and 6 months postinjection, in participants with chronic osteoarthritic knee joint pain. Secondary objectives were to evaluate the analgesic effects of Resiniferatoxin versus placebo in terms of a responder analysis (percentage of subjects achieving ≥50% or ≥70% reduction in visual analog scale pain score) and changes in Western Ontario and McMaster Universities Arthritis Index (WOMAC) total and subscale scores (pain, physical function and stiffness). Safety and injection site pain were also evaluated.
The study was conducted as a randomized, double-blind, placebo-controlled, single-dose trial of Resiniferatoxin. Eligible patients were aged 40 to 80 years with radiographic knee osteoarthritis (Kellgren-Lawrence Grade 2-4 in the last 3 years) and a baseline visual analog scale (0-100 mm) pain score ≥40 mm on motion in the target knee, with or without pain medication. 67 subjects were randomized to treatment with either Resiniferatoxin 100 ng (n=24) or 400 ng (n=23), or placebo (n=20), administered intraarticularly into the index knee. Intraarticular Ropivacaine (5 ml, 0.5%) was administered 15 mins before investigational medicinal product. Visual analog scale scores were used to evaluate pain on motion as the average of the last 2 days in a target knee between baseline and at 3 and 6 months post injection. Injection site pain was rated (visual analog scale) from baseline (−0.5 h) up to 3 h post intraarticular injections.

[2] = test system: moderate to severe pain due to osteoarthritis of the knee; settings: one-time intraarticular dose 5 to 30 μg; cited from earlier work
[3] = single intraarticular dose 100 ng or 400 ng

C=C(C)[C@]12C[C@@H](C)[C@@]34O[C@](Cc5ccccc5)(O[C@@H]1[C@@H]3C=C(COC(=O)Cc1ccc(O)c(OC)c1)C[C@]1(O)C(=O)C(C)=C[C@@H]41)O2 [Resiniferatoxin, 4-hydroxy-3-methoxy-benzeneacetic acid, [(2S,3aR,3bS,6aR,9aR,9bR, 10R,11aR)-3a,3b,6,6a,9a,10,11,11a-octahydro-6a-hydroxy-8,10-dimethyl-11a-(1-methylethenyl)-7-oxo-2-(phenylmethyl)-7H-2,9b-epoxyazuleno[5,4-e]-1,3-benzodioxol-5-yl]methyl ester]
reduction in WOMAC total and subscale scores (pain, physical function and stiffness) compared to placebo ([1]; 100 ng and 400 ng, at both 3 and 6 months): greater reduction in WOMAC total and subscale scores
subjects with severe adverse events ([1]; 100 ng group (n=24)): 2 subjects
pain reduction (VAS pain on motion) compared to placebo ([1]; 100 ng or 400 ng intraarticular): greater pain reduction than subjects receiving placebo
injection site pain (procedural pain) compared to placebo ([1]; 100 ng or 400 ng intraarticular, VAS up to 3 h post injection): generally higher
subjects with severe adverse events ([1]; 400 ng group (n=23)): 3 subjects
first visit at which reduction in VAS pain on motion was observed ([1]; intention-to-treat population, first trial visit post-injection): ≤ 8 days
last visit until which reduction in VAS pain on motion lasted ([1]; intention-to-treat population, last trial visit): ≥ 6 month
time of return of injection site pain to baseline ([1]; post-injection): ≤ 3 h
analgesic onset [1, 3]: within one week of administration
duration of analgesia during follow-up [1, 3]: at least 3 months
safety and tolerability [1, 3]: good safety profile and to have been well tolerated
efficacy [2]: Preliminary efficacy was also observed
